From patent US20100317639A1 (priority 2005, published 2010)

Tests used:
[1] = tested on: X-adrenoleukodystrophic fibroblasts; conditions: patients suffering from adrenoleucodistrophy; literature; cited from earlier work
ACAT = conditions: literature statement; cited from earlier work
[2] = administered in form of triglyceride; literature; cited from earlier work
[3] = literature, cited from earlier work
[4] = tested on: acyl-coenzyme A:cholesterol acetyltransferase enzyme (ACAT); assay: Effect of the ester on ACAT activity in rat hepatic microsomes (14C-linoleic acid incorporation into cholesterol esters, TLC, beta counter); format: biochemical; conditions: rat liver microsomes 200 micrograms, mean+/-standard error
Procedure: For the experiments of effectiveness a test to evaluate the effect of the ester formed from linoleic acid obtained from example 1 and example 4 on acyl-coenzyme A:cholesterol acetyltransferase enzyme (ACAT) activity was performed. The experiment was performed in vitro according to a classic pharmacology method, used for the evaluation of the activity of this enzyme, reported in the method book: Drug discovery and evaluation, Pharmacological assay, Ed. H. G: Vogel (Springer), p. 1119, 2002.
Hepatic microsomes were prepared as well as in the example 1.
Eight tubes were prepared, in all tubes linoleic acid-^14C (10 microM) was incubated in presence of 200 micrograms of microsomes. Each tube contained phosphate buffer 0.04 M KH2PO4, pH 7.4 with 0.05 M KCl, 0.03 EDTA, 0.3 M sucrose, 1 mM α-cyclodextrin, final volume 750 microliters. The eight tubes have been incubated at 37° C. for 10 min.
The esters of example 1 and 4 were pooled together and three sample solutions of concentration 12.5, 25 and 50 micromolar respectively were prepared in duplicate, therefore obtaining six sample solutions.
The six sample solutions were then transferred respectively in six of eight tubes prepared as above at the end of the 10 minutes (each concentration of ester separately incubated per tube). The seventh tube was added with ^14C-linoleic acid alone (without esters) and the eighth with ethanol alone (carrier in which the esters were resuspended) to evaluate a possible effect of ethanol on the enzymatic activity. All the eight tubes have been incubated at 37° C. for four minutes.
At the end of the time the reaction was stopped by adding chloroform:methanol 2:1. The samples of the eight tubes were extracted according to the Folch's method (1957). The lower phase of each sample containing the lipid extracts was separated and dried, then taken-up again in 1 ml of chloroform:methanol 2:1. The extract of each sample was dried and subjected to TLC. […]
Spots were highlighted through iodine vapour. The bands which correspond to the standard for each TLC were taken off from the plate and counted in beta counter. […]

In the case of `C[C@]12CC[C@@H](O)C[C@@H]1CC[C@@H]1[C@@H]2CC[C@]2(C)[C@@H](O)CC[C@@H]12` [5α-androstan-3α,17β-diol], the beta-oxidation [1] is listed as “increase beta-oxidation” and the cholesterol esterification processes [1] is listed as “reduce cholesterol esterification processes”.

In the case of `CCCCCCCN(Cc1ccc(CC(C)(C)C)cc1)C(=O)Nc1ccc(F)cc1F` [CL 277,082, N-(2,4-difluorophenyl)-N-(4-neopentylbenzyl)-N-(n-heptyl)urea], the “inhibiting the ACAT activity” value (ACAT) is given as “very strong and specific”.

In the case of `C[C@]12CCC(=O)C[C@@H]1CC[C@@H]1[C@@H]2CC[C@]2(C)[C@@H](O)CC[C@@H]12` [dihydrotestosterone, 5α-androstan-17β-ol-3-one], the beta-oxidation [1] is listed as “increase beta-oxidation” and the cholesterol esterification processes [1] is listed as “reduce cholesterol esterification processes”.

In the case of `CCCCCCCC/C=C\CCCCCCCCCCCC(=O)O` [erucic acid, erucic acid (C22:1)], the effectiveness in vitro [2] is listed as “only partially effective”, the effectiveness in vivo ([3]; administered in form of triglyceride) is listed as “little effective” and the “crossing of the hematoencephalic barrier” value ([3]; in vivo) is listed as “failed to cross the hematoencephalic barrier”.

With “monoester of the androgen 5α-androstan-3α,17β-diol (3α-diol) and of the linoleic acid (LA) (cis,cis-9,12-octadecadienoic acid) (18:2, n-6) [Example 1]” the “inhibition percentage with reference to the untreated sample” value (shortened to “inhibition percentage with reference”) ([4]; ester 12.5 microM) was 2.5, the “inhibition percentage with reference” value ([4]; ester 25 microM) was 44% and the “inhibition percentage with reference” value ([4]; ester 50 microM) was 28%.
